Structures can show the parent of a compound that is named as a salt.
Target: T1, Human PDE10A enzyme (Homo sapiens, UniProt Q9Y233)
T1 construct: transfected with the full-length gene; His-tag; made in house; host or cells: Sf9 or COS-7 cells
Assay: PDE enzyme inhibition, SPA (Scintillation Proximity Assay) with [3H]cGMP
Assay type: biochemical
Conditions: [3H]cGMP substrate; for inhibition at 1 µM: compound 1 μM, read-out: Percent inhibition (1 μM); for inhibition at 10 µM: compound 10 μM, read-out: Percent inhibition (10 μM); for inhibition at 0.1 µM: compound 0.1 μM, read-out: Percent inhibition (0.1 μM)
Protocol: Human PDE10A enzyme was generated from Sf9 or COS-7 cells transfected with the full-length gene. Cloned enzyme was extracted from homogenized cell pellets. The extracted enzyme from sf9 cells was partially purified using His-tag affinity column. The enzyme was stored at −70° C. until use. PDE activity was measured using a SPA (Scintillation Proximity Assay) (GE Healthcare). To evaluate the inhibitory activity, 10 μL of serial diluted compounds were incubated with 20 μL of PDE enzyme in assay buffer (50 mM HEPES-NaOH, 8.3 mM MgCl2, 1.7 mM EGTA, 0.1% BSA (pH 7.4)) for 30 min. at room temperature. Final concentration of DMSO in the assay was 1 percent as compounds were tested in duplicate in 96-well half-area plates (Corning). To start the reaction, 10 μL of substrate [^3H] cGMP (25 or 50 nM; enclosed in SPA kits from GE Healthcare or purchased from PerkinElmer, respectively) was added for a final assay volume of 40 μL. After 60 min incubation at room temperature, yttrium SPA beads containing Zinc sulphate were added (20 μL at 6 mg/mL) to terminate the PDE reaction. After being settled for 60 min, assay plates were counted in a scintillation counter (PerkinElmer) to allow calculation of inhibition rate. Inhibition rate was calculated on the basis of 0% control wells with DMSO and 100% control wells without enzyme.

T1 sequence (Q9Y233 267-1055): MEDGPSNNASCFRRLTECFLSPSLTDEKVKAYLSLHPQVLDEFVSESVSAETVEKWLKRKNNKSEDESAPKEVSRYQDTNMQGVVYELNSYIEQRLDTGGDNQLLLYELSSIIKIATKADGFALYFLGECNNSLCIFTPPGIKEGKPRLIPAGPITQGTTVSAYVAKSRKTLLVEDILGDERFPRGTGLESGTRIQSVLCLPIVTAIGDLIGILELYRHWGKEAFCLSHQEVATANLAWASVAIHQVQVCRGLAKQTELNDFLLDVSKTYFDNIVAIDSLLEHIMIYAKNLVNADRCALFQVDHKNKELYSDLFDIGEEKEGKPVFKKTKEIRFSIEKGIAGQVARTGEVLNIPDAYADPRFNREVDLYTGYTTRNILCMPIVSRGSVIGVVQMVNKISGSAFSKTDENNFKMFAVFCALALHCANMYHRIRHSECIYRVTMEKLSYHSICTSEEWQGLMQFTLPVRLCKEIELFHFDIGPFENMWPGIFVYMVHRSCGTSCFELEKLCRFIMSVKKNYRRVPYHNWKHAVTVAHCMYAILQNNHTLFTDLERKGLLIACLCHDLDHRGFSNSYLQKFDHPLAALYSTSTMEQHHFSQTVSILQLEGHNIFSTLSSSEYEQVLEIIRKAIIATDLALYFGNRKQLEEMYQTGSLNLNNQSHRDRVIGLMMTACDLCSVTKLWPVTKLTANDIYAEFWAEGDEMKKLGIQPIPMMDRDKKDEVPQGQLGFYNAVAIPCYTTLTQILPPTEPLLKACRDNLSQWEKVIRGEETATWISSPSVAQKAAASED

With `CCn1c(=O)n(-c2ccc3c(c2)CCN3c2nc3ccccc3n2C)c2ncccc21` [Example 48, 1-ethyl-3-[1-(1-methyl-1H-benzimidazol-2-yl)-2,3-dihydro-1H-indol-5-yl]-1,3-dihydro-2H-imidazo[4,5-b]pyridin-2-one] the inhibition at 1 µM was 96% and the inhibition at 10 µM was 100%.

In the case of `CCn1c(=O)n(-c2ccc(Oc3nc4cccnc4n3C)cc2)c2ncc(Cl)cc21` [Example 107, 6-chloro-1-ethyl-3-{4-[(3-methyl-3H-imidazo[4,5-b]pyridin-2-yl)oxy]phenyl}-1,3-dihydro-2H-imidazo[4,5-b]pyridin-2-one], the inhibition at 1 µM was 103% and the inhibition at 10 µM was 102%.

`CCn1c(=O)n(-c2ccc(Oc3nc4cccnc4n3C)cc2)c2c1c(C)cc[n+]2[O-]` [Example 136, 1-ethyl-7-methyl-3-{4-[(3-methyl-3H-imidazo[4,5-b]pyridin-2-yl)oxy]phenyl}-1,3-dihydro-2H-imidazo[4,5-b]pyridin-2-one 4-oxide] gave an inhibition at 1 µM of 81% and an inhibition at 10 µM of 98%.

`O=c1[nH]c2cccnc2n1-c1ccc(N2CCn3c2nc2ccccc23)cc1` [Example 2, 3-[4-(2,3-dihydro-1H-imidazo[1,2-a]benzimidazol-1-yl)phenyl]-1,3-dihydro-2H-imidazo[4,5-b]pyridin-2-one] was tested, and the inhibition at 1 µM was 104% and the inhibition at 10 µM was 103%.

`CCn1c(=O)n(-c2ccc(Oc3nc4ccccc4n3C)cc2)c2ncc(F)cc21` [Example 132, 1-ethyl-6-fluoro-3-{4-[(1-methyl-1H-benzimidazol-2-yl)oxy]phenyl}-1,3-dihydro-2H-imidazo[4,5-b]pyridin-2-one] gave an inhibition at 1 µM of 104% and an inhibition at 10 µM of 107%.

Compound `CCn1c(=O)n(-c2ccc3c(c2)CCN3c2nc3ccccc3[nH]2)c2ncccc21` [Example 13, 3-[1-(1H-benzimidazol-2-yl)-2,3-dihydro-1H-indol-5-yl]-1-ethyl-1,3-dihydro-2H-imidazo[4,5-b]pyridin-2-one] has an inhibition at 1 µM of 100% and an inhibition at 10 µM of 101%.

With `CC(C)n1c(=O)n(-c2ccc3c(c2)CCN3c2nc3cccnc3[nH]2)c2ncccc21` [Example 72, 3-[1-(3H-imidazo[4,5-b]pyridin-2-yl)-2,3-dihydro-1H-indol-5-yl]-1-(1-methylethyl)-1,3-dihydro-2H-imidazo[4,5-b]pyridin-2-one] the inhibition at 1 µM was 104% and the inhibition at 10 µM was 110%.

For `CCn1c(=O)n(-c2ccc(Oc3cn4ccccc4n3)cc2)c2ncc(C)cc21` [Example 124, 1-ethyl-3-[4-(imidazo[1,2-a]pyridin-2-yloxy)phenyl]-6-methyl-1,3-dihydro-2H-imidazo[4,5-b]pyridin-2-one], the inhibition at 1 µM was 99% and the inhibition at 10 µM was 99%.

For `Cn1c(Oc2ccc(-n3c(=O)n(C(F)F)c4cccnc43)cc2)nc2ccccc21` [Example 100, 1-(difluoromethyl)-3-{4-[(1-methyl-1H-benzimidazol-2-yl)oxy]phenyl}-1,3-dihydro-2H-imidazo[4,5-b]pyridin-2-one], the inhibition at 1 µM was 99% and the inhibition at 10 µM was 100%.

In the case of `CCn1c(=O)n(-c2ccc(Oc3nc4ccccc4n3CCO)cc2)c2ncccc21` [Example 39, 1-ethyl-3-(4-{[1-(2-hydroxyethyl)-1H-benzimidazol-2-yl]oxy}phenyl)-1,3-dihydro-2H-imidazo[4,5-b]pyridin-2-one], the inhibition at 1 µM was 100% and the inhibition at 10 µM was 101%.

With `CC(C)n1c(=O)n(-c2ccc(Oc3nc4cccnc4n3C)cc2)c2ncc(Cl)cc21` [Example 126, 6-chloro-1-(1-methylethyl)-3-{4-[(3-methyl-3H-imidazo[4,5-b]pyridin-2-yl)oxy]phenyl}-1,3-dihydro-2H-imidazo[4,5-b]pyridin-2-one] the inhibition at 1 µM was 98% and the inhibition at 10 µM was 100%.

Work on `CCn1c(=O)n(-c2ccc(Oc3nc4cccnc4n3C)cc2)c2nccc(CO)c21` [Example 138, 1-ethyl-7-(hydroxymethyl)-3-{4-[(3-methyl-3H-imidazo[4,5-b]pyridin-2-yl)oxy]phenyl}-1,3-dihydro-2H-imidazo[4,5-b]pyridin-2-one] yielded an inhibition at 1 µM of 93% and an inhibition at 10 µM of 105%.

`CCCn1c(=O)n(-c2ccc(Oc3nc4cccnc4n3C)cc2)c2ncccc21` [Example 97, 3-{4-[(3-methyl-3H-imidazo[4,5-b]pyridin-2-yl)oxy]phenyl}-1-propyl-1,3-dihydro-2H-imidazo[4,5-b]pyridin-2-one] showed an inhibition at 1 µM of 97% and an inhibition at 10 µM of 98%.

In the case of `Cn1c(Oc2ccc(N3C(=O)C(C)(C)c4cccnc43)cc2)nc2ccccc21` [Example 102, 3,3-dimethyl-1-{4-[(1-methyl-1H-benzimidazol-2-yl)oxy]phenyl}-1,3-dihydro-2H-pyrrolo[2,3-b]pyridin-2-one], the inhibition at 1 µM was 99% and the inhibition at 10 µM was 106%.

With `CC1(C)C(=O)N(c2ccc(Oc3cn4ccccc4n3)cc2)c2ncccc21` [Example 123, 1-[4-(imidazo[1,2-a]pyridin-2-yloxy)phenyl]-3,3-dimethyl-1,3-dihydro-2H-pyrrolo[2,3-b]pyridin-2-one] the inhibition at 1 µM was 96% and the inhibition at 10 µM was 101%.

`CCn1c(=O)n(-c2ccc3c(c2)CCN3c2nc3cccnc3[nH]2)c2ncccc21` [Example 71, 1-ethyl-3-[1-(3H-imidazo[4,5-b]pyridin-2-yl)-2,3-dihydro-1H-indol-5-yl]-1,3-dihydro-2H-imidazo[4,5-b]pyridin-2-one] showed an inhibition at 1 µM of 99% and an inhibition at 10 µM of 97%.

`CCn1c(=O)n(-c2ccc(Oc3nc4cccnc4n3C)cc2)c2ncccc21` [Example 86, 1-ethyl-3-{4-[(3-methyl-3H-imidazo[4,5-b]pyridin-2-yl)oxy]phenyl}-1,3-dihydro-2H-imidazo[4,5-b]pyridin-2-one] gave an inhibition at 1 µM of 97% and an inhibition at 10 µM of 98%.

Compound `CCn1c(=O)n(-c2ccc(Oc3nc4ccccc4[nH]3)cc2)c2nccc(C)c21` [Example 64, 3-[4-(1H-benzimidazol-2-yloxy)phenyl]-1-ethyl-7-methyl-1,3-dihydro-2H-imidazo[4,5-b]pyridin-2-one dihydrochloride] has an inhibition at 1 µM of 100% and an inhibition at 10 µM of 101%.

In the case of `CCn1c(=O)n(-c2ccc(-n3ncc4cccnc43)cc2)c2ncccc21` [Example 12, 1-Ethyl-3-[4-(1H-pyrazolo[3,4-b]pyridin-1-yl)phenyl]-1,3-dihydro-2H-imidazo[4,5-b]pyridin-2-one], the inhibition at 1 µM was 93% and the inhibition at 10 µM was 99%.

`CCn1c(=O)n(-c2ccc(Oc3nc4cccnc4n3C)cc2)c2ncc(C#N)cc21` [Example 108, 1-ethyl-3-{4-[(3-methyl-3H-imidazo[4,5-b]pyridin-2-yl)oxy]phenyl}-2-oxo-2,3-dihydro-1H-imidazo[4,5-b]pyridine-6-carbonitrile] showed an inhibition at 1 µM of 100% and an inhibition at 10 µM of 102%.

In the case of `Cn1c(=O)n(-c2ccc(N3CCn4c3nc3ccccc34)cc2)c2ncccc21` [Example 3, 3-[4-(2,3-dihydro-1H-imidazo[1,2-a]benzimidazol-1-yl)phenyl]-1-methyl-1,3-dihydro-2H-imidazo[4,5-b]pyridin-2-one], the inhibition at 0.1 µM was 99%.

For `Cn1c(Oc2ccc(-n3c(=O)n(C(F)F)c4cccnc43)cc2)nc2cccnc21` [Example 101], the inhibition at 1 µM was 101% and the inhibition at 10 µM was 99%.

With `CCn1c(=O)n(-c2ccc(N3CCn4c3nc3ccccc34)cc2)c2ncccc21` [Example 24, 3-[4-(2,3-dihydro-1H-imidazo[1,2-a]benzimidazol-1-yl)phenyl]-1-ethyl-1,3-dihydro-2H-imidazo[4,5-b]pyridin-2-one] the inhibition at 0.1 µM was 98%.
